Values of other authors in patent US9040545B2, “Heterocyclyl pyrazolopyrimidine analogues as selective JAK inhibitors” (Cellzome Limited, priority 2010, dated 2015).

Tests used:
[1] = literature; cited from earlier work
[2] = NOD mouse, literature; cited from earlier work
[3] = literature; cited from earlier work; remark: listed apart in the source

Compound	efficacy in an animal model of organ transplantation [1]	spontaneous autoimmune diabetes development [2]	severity of GVHD [3]
C[C@@H]1CCN(C(=O)CC#N)C[C@@H]1N(C)c1ncnc2[nH]ccc12 [CP-690,550]	efficacy		
COc1cc2ncnc(Nc3ccc(O)cc3)c2cc1OC [JANEX-1]		prevent spontaneous autoimmune diabetes development	attenuate the severity of GVHD
